In ChEMBL document CHEMBL1275485, “The antimalarial trioxaquine DU1301 alkylates heme in malaria-infected mice” (Antimicrob Agents Chemother, 2008):
Activity calls are given as the source filed them. No cut-off for these calls is given here.

Assays:
Spleen = experiment: Induction of heme alkylation in Plasmodium vinckei petteri-infected Swiss albino mice (Mus musculus) spleen assessed as covalent heme-drug adduct formation at 100 mg/kg, perorally administered as single dose measured by liquid chromatography-mass spectrometry method; type: functional, organism-based; set-up: dose 100 mg/kg
Kidney = experiment: Induction of heme alkylation in Plasmodium vinckei petteri-infected Swiss albino mice (Mus musculus) kidney assessed as heme-drug adduct at 100 mg/kg, perorally administered as single dose measured by liquid chromatography-mass spectrometry method; type: functional, organism-based; set-up: dose 100 mg/kg

With `CC(C)C1=C[C@H]2OC3(CCC(NCCNc4ccnc5cc(Cl)ccc45)CC3)OO[C@@]2(C)CC1` (some centres not stated) the Activity (Spleen) was “Active” and the Activity (Kidney) was “inactive”.
